Patent US20240325398A1, “COMBINATION THERAPIES” (Infinity Pharmaceuticals, Inc., priority 2014, published 2024)

Tests used:
Assay in all cases: Combination study, ATPLite 72 h, dose matrix (Synergy Score, CI50)
RPMI-8226 = conditions: combination with Compound 1
NCI-H929 = conditions: combination with Compound 1
RL = conditions: combination with Compound 1, 72 h
TMD8 = conditions: combination with Compound 1; TMD8; 72 h
SU-DHL-10-epst = conditions: combination with Compound 1, 72 h
Farage = conditions: combination with Compound 1; Farage; 72 h
OCI-Ly3 = conditions: combination with Compound 1; OCI-Ly3; 72 h
Mino = conditions: combination with Compound 1
Procedure: (§1) Cells are thawed from a liquid nitrogen preserved state. Once cells have been expanded and divide at their expected doubling times, screening begins. Cells are seeded in growth media in either black 1536-well or 384-well tissue culture treated plates. Cells are then equilibrated in assay plates via centrifugation and placed in incubators attached to the Dosing Modules at 37° C. for 24 hours before treatment. […] These Tzero (To) plates are read using ultra-sensitive luminescence on Envision plate readers (Perkin Elmer). Treated assay plates are incubated with compound for 72 hours. After 72 hours, plates are developed for endpoint analysis using ATPLite. All data points are collected via automated processes, quality controlled and analyzed using Zalicus software.
where T is treated cell count and V is untreated (vehicle) cell count (at 72 hours). I ranges from 0% (when T=V) to 100% (when T=0). […] The measure of effect in the experiment can be the inhibition of cellular response relative to the untreated level (vehicle alone). […] The inhibition ranges from 0% at the untreated level to 100% when T=0. Inhibition levels are negative for agents that actually increase levels. Other effect measures, such as an activity ratio r=T/V may be more appropriate for some assays. When activity ratios (e.g, fold increase over stimulated control) are being used, the effect can be measured using an induction 1=ln(T/V). With this definition, all effect expressions are the same as for inhibition.
(§2) Growth Inhibition (GI) is used as a measure of cell viability. […] A GI reading of 100% represents complete growth inhibition—T72 compound-treated and T0 vehicle signals are matched. […] A GI reading of 200% represents complete death of all cells in the culture well. Compounds reaching an activity plateau of GI 200% are considered cytotoxic. GI is calculated by applying the following test and equation:
(§3) Combination analysis data were collected in a 6×6 dose matrix. Synergy is calculated by comparing a combination's response to those of its single compound, against the drug-with-itself dose-additive reference model. Deviations from dose additivity may be assessed visually on an isobologram or numerically with a Combination Index (CI). […] Additive effect is CI=1.0. […] Antagonistic effect is CI>1.0.
(§4) To measure combination effects in excess of Loewe additivity, a scalar measure to characterize the strength of synergistic interaction termed the Synergy Score is devised. The Synergy Score is calculated as:
(§5) The fractional inhibition for each component agent and combination point in the matrix is calculated relative to the median of all vehicle-treated control wells. The Synergy Score equation integrates the experimentally-observed activity volume at each point in the matrix in excess of a model surface numerically derived from the activity of the component agents using the Loewe model for additivity. Additional terms in the Synergy Score equation (above) are used to normalize for various dilution factors used for individual agents and to allow for comparison of synergy scores across an entire experiment. The inclusion of positive inhibition gating or an Idata multiplier removes noise near the zero effect level, and biases results for synergistic interactions at that occur at high activity levels.
Loewe Volume (Loewe Vol) is used to assess the overall magnitude of the combination interaction in excess of the Loewe additivity model. Loewe Volume is particularly useful when distinguishing synergistic increases in a phenotypic activity (positive Loewe Volume) versus synergistic antagonisms (negative Loewe Volume). […] This model defines additivity as a non-synergistic combination interaction where the combination dose matrix surface should be indistinguishable from either drug crossed with itself.

HH = type: cell-based; conditions: combination with Compound 1
Procedure: The method is described as follows.
Additive effect is CI=1.0. […] Antagonistic effect is CI>1.0.
The Synergy Score is calculated as: […]

OCI-Ly7 = conditions: combination with Compound 1, 72 h
Procedure: as §1
(§6) The measure of effect in the experiment can be the inhibition of cellular response relative to the untreated level (vehicle alone). […] The inhibition ranges from 0% at the untreated level to 100% when T=0. Inhibition levels are negative for agents that actually increase levels.
as §2, §3, §4, §5
(§7) Loewe Volume (Loewe Vol) is used to assess the overall magnitude of the combination interaction in excess of the Loewe additivity model. Loewe Volume is particularly useful when distinguishing synergistic increases in a phenotypic activity (positive Loewe Volume) versus synergistic antagonisms (negative Loewe Volume). […] This model defines additivity as a non-synergistic combination interaction where the combination dose matrix surface should be indistinguishable from either drug crossed with itself. The calculation for Loewe additivity is:

DOHH-2 = conditions: combination with Compound 1, 72 h
OMP-2 = conditions: combination with Compound 1; OPM-2
KARPAS-299 = conditions: combination with Compound 1
U-2932 = conditions: combination with Compound 1, 72 h
GRANTA-519 = conditions: combination with Compound 1
HBL-1 = conditions: combination with Compound 1, 72 h
SU-DHL-4-epst = conditions: combination with Compound 1, 72 h
Procedure: as §1, §6, §2, §3, §4, §5, §7

Jeko-1 = conditions: combination with Compound 1
KARPAS-422 = conditions: combination with Compound 1, 72 h
WSU-NHL = conditions: combination with Compound 1, 72 h

O=C(Nc1ccc2[nH]nc(-c3ccncc3)c2c1)[C@@H]1CCN(CC(=O)N2CCN(c3ccc(-c4ncccn4)cc3)CC2)C1 [SCH772984, (R)-1-(2-oxo-2-(4-(4-(pyrimidin-2-yl)phenyl)piperazin-1-yl)ethyl)-N-(3-(pyridin-4-yl)-1H-indazol-5-yl)pyrrolidine-3-carboxamide]
S (S=0.01 to <0.5): CI50 inhibition (HH)
A2 (A2=1 to <3): Synergy Score growth inhibition (SU-DHL-10-epst) | Synergy Score inhibition (SU-DHL-10-epst)
W (W=≥1): CI50 growth inhibition (NCI-H929) | CI50 inhibition (NCI-H929) | CI50 inhibition (SU-DHL-10-epst) | CI50 inhibition (Farage) | CI50 growth inhibition (OCI-Ly3) | CI50 growth inhibition (Mino) | CI50 growth inhibition (DOHH-2) | CI50 inhibition (DOHH-2) | CI50 growth inhibition (U-2932) | CI50 growth inhibition (SU-DHL-4-epst) | CI50 growth inhibition (Jeko-1) | CI50 inhibition (KARPAS-422)
U (U=0.7 to <1): CI50 inhibition (TMD8) | CI50 growth inhibition (WSU-NHL) | CI50 inhibition (WSU-NHL)
T (T=0.5 to <0.7): CI50 growth inhibition (TMD8) | CI50 growth inhibition (SU-DHL-10-epst) | CI50 growth inhibition (Farage) | CI50 growth inhibition (HH) | CI50 growth inhibition (HBL-1) | CI50 growth inhibition (KARPAS-422)
A1 (A1=0.0001 to <1): Synergy Score growth inhibition (RPMI-8226) | Synergy Score inhibition (RPMI-8226) | Synergy Score growth inhibition (NCI-H929) | Synergy Score inhibition (NCI-H929) | Synergy Score growth inhibition (RL) | Synergy Score inhibition (RL) | Synergy Score growth inhibition (TMD8) | Synergy Score inhibition (TMD8) | Synergy Score growth inhibition (Farage) | Synergy Score inhibition (Farage) | Synergy Score growth inhibition (OCI-Ly3) | Synergy Score inhibition (OCI-Ly3) | Synergy Score growth inhibition (Mino) | Synergy Score inhibition (Mino) | Synergy Score growth inhibition (HH) | Synergy Score inhibition (HH) | Synergy Score growth inhibition (OCI-Ly7) | Synergy Score inhibition (OCI-Ly7) | Synergy Score growth inhibition (DOHH-2) | Synergy Score inhibition (DOHH-2) | Synergy Score growth inhibition (OMP-2) | Synergy Score inhibition (OMP-2) | Synergy Score growth inhibition (KARPAS-299) | Synergy Score inhibition (KARPAS-299) | Synergy Score growth inhibition (U-2932) | Synergy Score inhibition (U-2932) | Synergy Score growth inhibition (GRANTA-519) | Synergy Score inhibition (GRANTA-519) | Synergy Score growth inhibition (HBL-1) | Synergy Score inhibition (HBL-1) | Synergy Score growth inhibition (SU-DHL-4-epst) | Synergy Score inhibition (SU-DHL-4-epst) | Synergy Score growth inhibition (Jeko-1) | Synergy Score inhibition (Jeko-1) | Synergy Score growth inhibition (KARPAS-422) | Synergy Score inhibition (KARPAS-422) | Synergy Score growth inhibition (WSU-NHL) | Synergy Score inhibition (WSU-NHL)
